Data taken from patent publication US20230203043A1, “NOVEL IMIDAZOPYRAZINE DERIVATIVES” (Hoffmann-La Roche Inc., priority 2020, published 2023).
Counter-ions that a name gives are not always drawn. Like-named read-outs stand apart in the source and are kept apart here.

Test system: Acinetobacter baumannii ATCC17961
Experiment: Antimicrobial susceptibility testing: 90% growth inhibitory concentration (IC90) determination in Iso-Sensitest broth, OD600 growth
Type: cell-based
How it was run: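 Growth monitored at 600 nm every 20 min for 16 h at 35±2 °C, inoculum ~5×10^(5) CFU/ml in Iso-Sensitest medium. Compounds in 10-point twofold series, e.g. 50 to 0.097 μM final; 90% inhibitory concentration taken from log-phase growth.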

[1] = Acinetobacter baumannii, ATCC17961, 16 h, strain ATCC 17961, OD600 growth over 16 h, read-out: A. baumannii ATCC 17961 IC90
[2] = strain ATCC 17961, OD600 growth over 16 h, read-out: A. baumannii ATCC 17961 IC90
[3] = Acinetobacter baumannii, ATCC17961, 16 h, read-out: A. baumannii ATCC 17961 IC90 (uM), strain ATCC 17961, OD600 growth over 16 h

`N#CCn1cc(-c2cnc3c(Nc4ccc(C(=O)NCCOCCN)c(Cl)c4)nccn23)c(C(F)(F)F)n1` [Example 257, N-[2-(2-aminoethoxy)ethyl]-2-chloro-4-[[3-[1-(cyanomethyl)-3-(trifluoromethyl)pyrazol-4-yl]imidazo[1,2-a]pyrazin-8-yl]amino]benzamide] was tested, and the IC90 [1] was 0.37 µM.

For `N#CCn1cc(-c2cnc3c(Nc4ccc(C(=O)N5CCN(C(=O)NCCN)CC5)c(Cl)c4)nccn23)c(C(F)(F)F)n1` [Example 258, N-(2-aminoethyl)-4-[2-chloro-4-[[3-[1-(2-cyanomethyl)-3-(trifluoromethyl)pyrazol-4-yl]imidazo[1,2-a]pyrazin-8-yl]amino]benzoyl] piperazine-1-carboxamide formate], the IC90 [2] was 0.398 µM.

For `N#CCCn1cc(-c2cnc3c(Nc4ccc(C(=O)N5CCN(C(=O)N[C@H]6CCNC6)CC5)c(Cl)c4)nccn23)c(C(F)(F)F)n1` [Example 259, 4-[2-chloro-4-[[3-[1-(2-cyanoethyl)-3-(trifluoromethyl)pyrazol-4-yl]imidazo[1,2-a]pyrazin-8-yl]amino]benzoyl]-N-[(3S)-pyrrolidin-3-yl]piperazine-1-carboxamide formate], the IC90 [3] was 0.463 µM.

`CCc1cc(Nc2nccn3c(-c4cn(CC#N)nc4C(F)(F)F)cnc23)ccc1C(=O)N1CCNCC1` [Example 260, 2-[4-[8-[3-ethyl-4-(piperazine-1-carbonyl)anilino]imidazo[1,2-a]pyrazin-3-yl]-3-(trifluoromethyl)pyrazol-1-yl]acetonitrile formate] was tested, and the IC90 [3] was 0.519 µM.

`Cc1cc(Nc2nccn3c(-c4cn(CC#N)nc4C(F)(F)F)cnc23)ccc1C(=O)NCCOCCN` [Example 262, N-[2-(2-aminoethoxy)ethyl]-4-[[3-[1-(cyanomethyl)-3-(trifluoromethyl)pyrazol-4-yl]imidazo[1,2-a]pyrazin-8-yl]amino]-2-methylbenzamide] was tested, and the IC90 [1] was 1.1 µM.

`CCc1cc(Nc2nccn3c(-c4c[nH]nc4C(F)(F)F)cnc23)ccc1C(=O)NCCC1(N)CC1` [Example 263, N-[2-(1-aminocyclopropyl)ethyl]-2-ethyl-4-[[3-[3-(trifluoromethyl)-1H-pyrazol-4-yl]imidazo[1,2-a]pyrazin-8-yl]amino]benzamide] gave an IC90 [1] of 2.43 µM.

`N#CCn1cc(-c2cnc3c(Nc4ccc(C(=O)N5CCN(C(=O)NCCN)CC5)c(Cl)c4)nccn23)c(C(F)(F)F)n1` [Example 264, N-(2-aminoethyl)-4-[2-chloro-4-[[3-[1-(cyanomethyl)-3-(trifluoromethyl)pyrazol-4-yl]imidazo[1,2-a]pyrazin-8-yl]amino]benzoyl] piperazine-1-carboxamide formate] was tested, and the IC90 [2] was 0.451 µM.

Work on `NC1CC(NC(=O)N2CCN(C(=O)c3ccc(Nc4nccn5c(-c6c[nH]nc6C(F)(F)F)cnc45)cc3Cl)CC2)C1` (centres unmarked) [Example 265, N-(3-aminocyclobutyl)-4-[2-chloro-4-[[3-[3-(trifluoromethyl)-1H-pyrazol-4-yl]imidazo[1,2-a]pyrazin-8-yl]amino]benzoyl] piperazine-1-carboxamide formate] yielded an IC90 [2] of 0.231 µM.

Work on `NC1CN(C(=O)N2CCN(C(=O)c3ccc(Nc4nccn5c(-c6c[nH]nc6C(F)(F)F)cnc45)cc3Cl)CC2)C1` [Example 266, [4-(3-aminoazetidine-1-carbonyl)piperazin-1-yl]-[2-chloro-4-[[3-[3-(trifluoromethyl)-1H-pyrazol-4-yl]imidazo[1,2-a]pyrazin-8-yl]amino]phenyl] methanone formate] yielded an IC90 [3] of 0.282 µM.

For `CCc1cc(Nc2nccn3c(-c4cn(CC(C)CO)nc4C(F)(F)F)cnc23)ccc1C(=O)NCCOCCN` (centres unmarked) [Example 267, N-[2-(2-aminoethoxy)ethyl]-2-ethyl-4-[[3-[1-(3-hydroxy-2-methylpropyl)-3-(trifluoromethyl)pyrazol-4-yl]imidazo[1,2-a]pyrazin-8-yl]amino]benzamide], the IC90 [1] was 0.225 µM.

`CCc1cc(Nc2nccn3c(-c4cn(CC(O)CC)nc4C(F)(F)F)cnc23)ccc1C(=O)NCCOCCN` (centres unmarked) [Example 268, N-[2-(2-aminoethoxy)ethyl]-2-ethyl-4-[[3-[1-(2-hydroxybutyl)-3-(trifluoromethyl)pyrazol-4-yl]imidazo[1,2-a]pyrazin-8-yl]amino]benzamide] showed an IC90 [1] of 0.346 µM.
